Assay results published in ChEMBL document CHEMBL1201862, “PubChem BioAssay data set” (2004).
The source made the active and inactive calls.

Tests used:
[1] = molecular target: T1, Corticotropin-releasing factor receptor 2/Corticotropin-releasing factor-binding protein (Homo sapiens, UniProt P24387+Q13324); test: Dose Response confirmation of uHTS hits for small molecule antagonists of the CRF-binding protein and CRF-R2 receptor complex.; format: functional; settings: read-out: IC50_Mean
T1 sequence (Q13324 whole entry): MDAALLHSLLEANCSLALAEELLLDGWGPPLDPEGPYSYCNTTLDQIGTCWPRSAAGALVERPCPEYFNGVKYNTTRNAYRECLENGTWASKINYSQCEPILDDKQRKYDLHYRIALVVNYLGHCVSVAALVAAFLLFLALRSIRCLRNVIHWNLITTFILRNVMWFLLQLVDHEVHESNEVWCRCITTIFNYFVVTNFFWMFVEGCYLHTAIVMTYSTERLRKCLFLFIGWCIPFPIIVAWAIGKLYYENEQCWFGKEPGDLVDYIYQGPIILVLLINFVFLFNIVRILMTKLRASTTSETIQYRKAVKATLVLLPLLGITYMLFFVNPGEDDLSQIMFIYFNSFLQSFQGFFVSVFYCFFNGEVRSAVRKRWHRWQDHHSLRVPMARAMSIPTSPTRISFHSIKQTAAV
T1 sequence (P24387 whole entry): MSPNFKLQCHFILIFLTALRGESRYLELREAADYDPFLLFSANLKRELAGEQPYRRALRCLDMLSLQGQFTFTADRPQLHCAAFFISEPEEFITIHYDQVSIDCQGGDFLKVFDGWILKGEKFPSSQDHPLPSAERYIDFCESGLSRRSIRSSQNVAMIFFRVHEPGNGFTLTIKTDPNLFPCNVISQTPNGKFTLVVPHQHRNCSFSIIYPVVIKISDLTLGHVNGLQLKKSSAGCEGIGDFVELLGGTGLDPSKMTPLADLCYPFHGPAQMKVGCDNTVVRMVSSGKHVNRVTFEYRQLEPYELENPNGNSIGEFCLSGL

[2] = molecular target: T1, Corticotropin-releasing factor receptor 2/Corticotropin-releasing factor-binding protein; test: activators of CRF receptor 2 with binding protein – uHTS hits, confirmation (AID 602473); format: functional; settings: read-out: EC50_Mean
[3] = molecular target: T2, Replicative DNA helicase DnaB (Mycobacterium tuberculosis, UniProt P9WMR3); test: DnaB intein splicing inhibitors, dose response, biochemical, cell-free fluorescence (AID 449749); format: functional
T2 sequence (P9WMR3 whole entry): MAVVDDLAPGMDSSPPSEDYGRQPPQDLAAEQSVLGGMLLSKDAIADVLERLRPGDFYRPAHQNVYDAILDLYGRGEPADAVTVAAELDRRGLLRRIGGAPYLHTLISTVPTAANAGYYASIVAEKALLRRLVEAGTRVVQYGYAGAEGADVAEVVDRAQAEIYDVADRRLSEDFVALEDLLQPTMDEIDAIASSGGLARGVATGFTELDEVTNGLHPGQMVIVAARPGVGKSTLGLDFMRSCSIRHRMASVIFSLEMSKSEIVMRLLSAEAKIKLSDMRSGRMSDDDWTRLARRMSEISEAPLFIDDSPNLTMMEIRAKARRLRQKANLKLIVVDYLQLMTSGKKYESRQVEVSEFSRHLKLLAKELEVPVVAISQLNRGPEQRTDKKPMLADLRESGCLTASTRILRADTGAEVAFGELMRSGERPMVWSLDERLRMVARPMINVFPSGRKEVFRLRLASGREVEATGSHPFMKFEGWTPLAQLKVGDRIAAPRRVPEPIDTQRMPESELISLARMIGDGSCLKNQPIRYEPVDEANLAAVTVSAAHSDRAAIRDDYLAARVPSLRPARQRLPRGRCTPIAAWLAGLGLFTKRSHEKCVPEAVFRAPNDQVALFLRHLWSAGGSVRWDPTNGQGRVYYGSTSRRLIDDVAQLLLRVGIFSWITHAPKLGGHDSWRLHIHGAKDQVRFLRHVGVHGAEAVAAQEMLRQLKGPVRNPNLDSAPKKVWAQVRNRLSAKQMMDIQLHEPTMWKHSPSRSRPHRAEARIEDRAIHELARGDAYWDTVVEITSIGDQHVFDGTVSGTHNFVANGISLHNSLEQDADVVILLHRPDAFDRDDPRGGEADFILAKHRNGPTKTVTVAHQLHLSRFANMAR

Protein RecA = molecular target: T3, Protein RecA (Mycobacterium tuberculosis, UniProt P9WHJ3); test: Fluorescence Cell-Free Homogeneous Dose Retest to Identify Inhibitors of RecA-Intein Splicing Activity. [Related pubchem assays (depositor defined):AID2097, AID2223, AID489010, AID492950]; format: functional
T3 sequence (P9WHJ3 whole entry): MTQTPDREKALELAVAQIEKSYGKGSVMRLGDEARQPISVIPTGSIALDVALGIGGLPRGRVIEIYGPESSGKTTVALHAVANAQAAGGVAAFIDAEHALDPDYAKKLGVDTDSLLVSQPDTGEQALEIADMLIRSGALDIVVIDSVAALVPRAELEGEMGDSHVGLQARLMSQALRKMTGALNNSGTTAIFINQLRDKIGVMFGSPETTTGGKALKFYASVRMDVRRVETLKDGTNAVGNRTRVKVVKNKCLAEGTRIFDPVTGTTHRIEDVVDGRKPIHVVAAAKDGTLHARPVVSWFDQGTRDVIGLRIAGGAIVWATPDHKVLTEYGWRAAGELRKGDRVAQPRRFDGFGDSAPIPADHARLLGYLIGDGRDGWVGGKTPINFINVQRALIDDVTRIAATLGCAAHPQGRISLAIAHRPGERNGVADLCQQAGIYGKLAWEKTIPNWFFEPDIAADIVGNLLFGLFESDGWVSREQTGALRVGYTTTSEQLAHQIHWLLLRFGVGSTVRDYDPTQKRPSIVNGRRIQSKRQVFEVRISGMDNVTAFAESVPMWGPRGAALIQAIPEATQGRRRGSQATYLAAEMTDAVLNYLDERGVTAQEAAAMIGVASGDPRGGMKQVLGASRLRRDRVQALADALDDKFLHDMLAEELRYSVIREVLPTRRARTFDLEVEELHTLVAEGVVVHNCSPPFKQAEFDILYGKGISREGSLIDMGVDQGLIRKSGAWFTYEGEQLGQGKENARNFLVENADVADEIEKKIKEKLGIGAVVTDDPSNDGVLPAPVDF

Cytochrome P450 3A4 = Cytochrome P450 3A4 (Homo sapiens, UniProt P08684);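 note: CYP3A4 tested as one member of a cytochrome P450 panel screen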
Chain of Cytochrome P450 3A4 (P08684 whole entry): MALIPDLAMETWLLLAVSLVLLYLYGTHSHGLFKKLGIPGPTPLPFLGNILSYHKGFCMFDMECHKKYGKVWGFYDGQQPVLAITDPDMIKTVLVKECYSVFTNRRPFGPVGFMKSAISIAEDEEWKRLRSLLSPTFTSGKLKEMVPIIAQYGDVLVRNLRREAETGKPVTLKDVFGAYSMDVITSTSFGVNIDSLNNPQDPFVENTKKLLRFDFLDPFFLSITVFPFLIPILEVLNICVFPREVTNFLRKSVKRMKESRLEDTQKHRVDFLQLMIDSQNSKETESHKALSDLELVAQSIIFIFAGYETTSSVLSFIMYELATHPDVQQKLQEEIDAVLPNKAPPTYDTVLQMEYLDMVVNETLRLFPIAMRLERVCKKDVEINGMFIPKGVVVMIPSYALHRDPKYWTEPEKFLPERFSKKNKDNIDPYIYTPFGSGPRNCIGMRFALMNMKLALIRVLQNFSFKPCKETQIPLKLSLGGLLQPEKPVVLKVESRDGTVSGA

Cytochrome P450 2C19 = Cytochrome P450 2C19 (Homo sapiens, UniProt P33261); test: Cytochrome panel assay with activity outcomes. Panel member name: p450-cyp2c19 Compounds with AC50 equal or less than 10 uM are considered active; format: functional
Chain of Cytochrome P450 2C19 (P33261 whole entry): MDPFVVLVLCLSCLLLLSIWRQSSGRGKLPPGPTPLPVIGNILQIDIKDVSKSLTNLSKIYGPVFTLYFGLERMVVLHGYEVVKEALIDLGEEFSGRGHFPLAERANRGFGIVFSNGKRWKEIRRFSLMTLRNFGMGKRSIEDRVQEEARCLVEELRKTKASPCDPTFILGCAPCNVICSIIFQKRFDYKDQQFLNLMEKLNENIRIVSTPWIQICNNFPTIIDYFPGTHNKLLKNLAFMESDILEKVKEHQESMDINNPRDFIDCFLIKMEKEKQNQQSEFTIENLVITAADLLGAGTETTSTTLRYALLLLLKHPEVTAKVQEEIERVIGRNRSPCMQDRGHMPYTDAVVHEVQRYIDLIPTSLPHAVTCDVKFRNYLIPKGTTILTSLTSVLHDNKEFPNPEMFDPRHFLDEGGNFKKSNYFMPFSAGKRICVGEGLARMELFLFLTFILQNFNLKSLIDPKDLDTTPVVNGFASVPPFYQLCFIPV

H4 = test: Luminescence Cell-Based Dose Response HTS to Identify Activators of 5'UTR Stem-Loop Driven Prion Protein mRNA Translation in H4 Neuroglioblastoma Cells. [Related pubchem assays: 1829 (Project Summary), 1814 (Primary HTS)]; format: functional; settings: Homo sapiens
[4] = Luminescence Cell-Based Dose Response HTS to Identify Activators of Luciferase Translation or Activity in H4 […] Cells. [Related pubchem assays: 1829 (Project Summary), 1814 (Primary HTS)]; format: functional
Cytochrome P450 2C9 = Cytochrome P450 2C9 (Homo sapiens, UniProt P11712)
Chain of Cytochrome P450 2C9 (P11712 whole entry): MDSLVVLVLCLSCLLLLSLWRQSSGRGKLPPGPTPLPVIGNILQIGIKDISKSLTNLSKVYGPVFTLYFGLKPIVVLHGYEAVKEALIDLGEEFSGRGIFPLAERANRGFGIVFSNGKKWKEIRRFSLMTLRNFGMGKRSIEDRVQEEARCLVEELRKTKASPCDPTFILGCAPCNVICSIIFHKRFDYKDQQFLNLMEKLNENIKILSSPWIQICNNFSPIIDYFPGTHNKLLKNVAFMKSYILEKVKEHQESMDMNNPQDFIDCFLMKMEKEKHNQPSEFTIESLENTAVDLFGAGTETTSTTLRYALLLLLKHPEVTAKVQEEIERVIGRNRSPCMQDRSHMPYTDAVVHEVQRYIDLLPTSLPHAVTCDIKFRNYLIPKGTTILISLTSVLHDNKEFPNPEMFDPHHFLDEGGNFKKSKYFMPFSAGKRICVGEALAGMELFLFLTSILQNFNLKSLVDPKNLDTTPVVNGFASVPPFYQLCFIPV

## Cc1ccc(N2CC(C(=O)NC3CCC(C)CC3)CC2=O)cc1 (stereo unspecified)
[1]
  IC50: > 47.1 µM (inactive)
[2]
  EC50: > 53 µM (inactive)

## CC1=NN(c2ccccc2)C(=O)C1/C=C1\C(=O)NC(=O)N(c2ccc(C)c(C)c2)C1=O (stereo unspecified)
[3]
  AC50: 23.6 µM (active)
Protein RecA
  EC50: 3.37 µM (active)

## O=c1c(CCc2ccccc2)nc2cnc(Oc3ccccc3)nc2n1C[C@H]1CCCO1
Cytochrome P450 3A4
  AC50: 0.0794 µM (inconclusive)
Cytochrome P450 2C19; read-out: AC50
  AC50: 39.8 µM (inconclusive)

## CC(C)(C)NC(=O)C(c1ccccn1)N(C(=O)C1CSC(=O)C1)c1cccc(F)c1 (stereo unspecified)
[1]
  IC50: > 47.1 µM (inactive)
[2]
  EC50: > 53 µM (inactive)

## O=C1C(=Cc2cccs2)C(=O)c2ccccc21
[1]
  IC50: > 47.1 µM (inactive)
[2]
  EC50: > 53 µM (inactive)

## Cc1n[nH]c2c1C1(CCN(Cc3ccccc3)CC1)C(C#N)=C(N)O2
[3]
  AC50: > 380 µM (inactive)
Protein RecA
  EC50: 1.07 µM (active)

## O=C(O)C1C2CCC(C2)C1C(=O)NCc1ccco1 (stereo unspecified)
Cytochrome P450 2C19; read-out: AC50
  AC50: 7.94 µM (inconclusive)

## OC(C#CCN1CCCCCC1)(c1ccccc1)c1cccnc1 (stereo unspecified)
[1]
  IC50: > 47.1 µM (inactive)
[2]
  EC50: > 53 µM (inactive)

## CCOC(=O)N1CCN(C(=O)CSc2nnc(-c3ccc(C(C)(C)C)cc3)o2)CC1
[1]
  IC50: > 47.1 µM (inactive)
[2]
  EC50: > 53 µM (inactive)

## Cc1ccc(/N=c2/sc(C)c(C)n2C)cc1
H4
  EC50: 108 µM (active)
[4]
  EC50: 13.9 µM (active)

## O=C(CSc1nnnn1-c1ccccc1)NCCCN1CCCC1=O
[1]
  IC50: > 47.1 µM (inactive)
[2]
  EC50: > 53 µM (inactive)

## O=C(Nc1ccc(-c2nc3ccccc3s2)c(OC(=O)c2ccccc2)c1)c1ccccc1
H4
  EC50: > 120 µM (not active)

## CS(=O)(=O)c1ccc(C(=O)CN2C(=O)NC3(CCCc4ccccc43)C2=O)cc1 (stereo unspecified)
[1]
  IC50: > 47.1 µM (inactive)
[2]
  EC50: > 53 µM (inactive)

## O=C(NN1C(=O)CSC1=S)c1cccnc1
[1]
  IC50: > 47.1 µM (inactive)
[2]
  EC50: > 53 µM (inactive)

## COc1ccccc1CNc1nc(-c2ccccc2CN(C)C)nc2ccccc12
Cytochrome P450 2C19; read-out: AC50
  AC50: 25.1 µM (inconclusive)

## CCCc1nnc(SCC(=O)N2CCCCC2C)n1CCCOC (stereo unspecified)
Cytochrome P450 2C9
  AC50: 0.0251 µM (inconclusive)
Cytochrome P450 3A4
  AC50: 15.8 µM (inconclusive)
Cytochrome P450 2C19; read-out: AC50
  AC50: 39.8 µM (inconclusive)

## COc1cc2[nH]c(=O)n(CCCCCC(=O)NC3CCCC3)c(=O)c2cc1OC
[1]
  IC50: > 47.1 µM (inactive)
[2]
  EC50: > 53 µM (inactive)

## O=C(/C=C/c1ccc2ccccc2n1)N1CCN(c2ccccc2)CC1
[1]
  IC50: > 47.1 µM (inactive)
[2]
  EC50: > 53 µM (inactive)

## Cc1cccc(-c2nc(C[S+]([O-])CC(=O)N3CC(C)CC(C)C3)c(C)o2)c1 (stereo unspecified)
[1]
  IC50: > 47.1 µM (inactive)
[2]
  EC50: > 53 µM (inactive)

## N#C/C(=C\c1ccccc1)c1nc2ccc[nH]c-2n1
Cytochrome P450 2C19; read-out: AC50
  AC50: 28.2 µM (inconclusive)

## Cc1ccc(NC(=O)c2cnc(SCC(=O)NCC3CCCO3)n(C)c2=O)cc1C (stereo unspecified)
[3]
  AC50: 7.83 µM (active)
Protein RecA
  EC50: 2.23 µM (active)

## CCOc1ccccc1NC(=O)CCC(=O)O
Cytochrome P450 2C19; read-out: AC50
  AC50: 3.16 µM (inconclusive)

## N#Cc1c(N2CCOCC2)nsc1-c1ccc(C(F)(F)F)cc1
H4
  EC50: 24.7 µM (active)
[4]
  EC50: 10.9 µM (active)

## COc1ccc(CCNC2=C(Cl)C(=O)N(Cc3ccccc3)C2=O)cc1OC
[1]
  IC50: > 47.1 µM (inactive)
[2]
  EC50: > 53 µM (inactive)

## CC(=O)N1N=C(c2ccc(C)cc2)OC1c1ccc(C(C)C)cc1 (stereo unspecified)
H4
  EC50: 6.68 µM (active)
[4]
  EC50: > 120 µM (not active)

## O=C1C(Cc2ccccc2)Nc2ncnc(N3CCc4ccccc4C3)c2N1Cc1ccc(Cl)cc1 (stereo unspecified)
[3]
  AC50: > 120 µM (inactive)
Protein RecA
  EC50: > 380 µM (inconclusive)

## CC(C)=CCC/C(C)=C/CO/N=C1/C[C@@H](O)[C@@H](O)[C@@H]2[C@@H]3C(=O)N(Cc4ccccc4)C(=O)[C@H]3CC[C@@H]12
Cytochrome P450 2C19
  AC50: inconclusive

## Cc1cc(C(F)F)n2nc(C(=O)Nc3sc4c(c3C#N)CCC(C)C4)nc2n1 (stereo unspecified)
Cytochrome P450 3A4
  AC50: 15.8 µM (inconclusive)
Cytochrome P450 2C19; read-out: AC50
  AC50: 31.6 µM (inconclusive)

## CC(C)c1nc2ccccn2c1NC1CCCCC1
Cytochrome P450 2C9
  AC50: 39.8 µM (inconclusive)
Cytochrome P450 2C19; read-out: AC50
  AC50: 22.4 µM (inconclusive)

## COCCCN1Cc2ccccc2C1=N
Cytochrome P450 2C9
  AC50: 11.2 µM (inconclusive)
Cytochrome P450 2C19; read-out: AC50
  AC50: 39.8 µM (inconclusive)

## CCNc1ncc2nc(CCc3ccccc3)c(=O)n(-c3ccc(OC)cc3)c2n1
Cytochrome P450 2C9
  AC50: 15.8 µM (inconclusive)
Cytochrome P450 2C19; read-out: AC50
  AC50: 39.8 µM (inconclusive)

## O=C1NC(=O)N(CCc2ccc(F)cc2)C(=O)/C1=C/NCCCN1CCOCC1
Cytochrome P450 2C19
  AC50: inconclusive

## CN1CCC[C@@H]1c1cccnc1.Cc1ccc(C(=O)O[C@@H](C(=O)O)[C@@H](OC(=O)c2ccc(C)cc2)C(=O)O)cc1
Cytochrome P450 2C19
  AC50: inconclusive

## Cc1sc(NC(=O)/C=C/C(=O)O)c(C(N)=O)c1-c1ccc(C(C)(C)C)cc1
[3]
  AC50: > 380 µM (inactive)
Protein RecA
  EC50: 5.82 µM (active)
